Results from US8258259B2, “Macromolecular compounds having controlled stoichiometry” (Starpharma Pty Limited, priority 2005, dated 2012).
“Also recorded” adds a separate entry of the source. Marks after values point to notes of the source that are not given here.

Experiments:
[1] = tested on: T cell tropic NL4.3 strain of HIV-1; test: Antiviral efficacy: MT-2 cells infected with HIV-1 NL4.3, cell viability by MTS after 6 days (IC50); assay type: cell-based; conditions: for EC50: MT-2 cells infected with HIV-1 NL4.3, 6 days, MTS viability; for anti-HIV activity compared with SPL7013: MT-2 cells, HIV-1 NL4.3, comparison with homogenous surface dendrimer SPL7013 (Table 24)
Experimental: MT-2 cells are infected with the T cell tropic NL4.3 strain of HIV-1 in the presence of 6, 5-fold serial concentrations of compound in triplicate wells of a 96 well plate. In the same plate, cells are exposed to the same drug concentrations in the absence of virus to determine the cytotoxic concentrations of the compound. […] Antimicrob Agents Chemother.
After 6 days incubation at 37° C. in a CO2 incubator, cell viability of both virus-infected and uninfected cells is determined by incubating cells for 3-4 hours with 3-(4,5-dimethylthiazol-2-yl)-5-(3-carboxymethoxyphenyl)-2-(4-sulfophenyl)-2H-tetrazolium (MTS) according to manufacturer's instructions (CellTiter 96 AQueous One Solution Cell Proliferation assay (Promega, Madison Wis.)).

[2] = Plasma clearance studies for radiolabelled (tritiated) macromolecules: plasma, urine, faeces and organ tritium after 5 mg/kg intravenous dose; assay type: in vivo; conditions: rats; for plasma T½: tritiated macromolecule; for % of 3H dose excreted in total urine: urine collected 0-30 hr
Experimental: Tritiated poly-lysine macromolecules were dissolved in phosphate buffered saline (PBS), pH 7.4) and frozen until required. Rats were intravenously administered 5 mg/kg of macromolecule via an indwelling cannula (implanted in the jugular vein) over 2 min.
Immediately following dosing, a blood sample (t=0) was collected via an indwelling carotid artery cannula and placed in a heparinised eppendorf tube.
Blood samples were then collected at predetermined intervals for the following 30 hr, and the plasma separated. In addition, urine and faeces were collected at 0-8 hr, 8-24 hr and 24-30 hr. At sacrifice (30 hr after the intravenous dose) the major organs (liver, kidneys, spleen, pancreas, heart, lung and brain) were collected and weighed. The tritium content of plasma, urine, faeces and the various tissue samples were determined using validated scintillation assays.

[3] = tested on: T cell tropic NL4.3 strain of HIV-1; conditions: positive control of the assay; Dezzutti et al. 2004; cited from earlier work

Work on “BHALys[GlyLys]2[Lys]4[Boc]6[ε,ε-COCH2O-3,6-Naph (SO3Na)2]2 [Example 49]” yielded an EC50 [1] of 2.2 µg/mL.
With “BHALys[GlyLys]2[Lys]4[COCH2O-3,6-Naph(SO3Na)2]6 [ε,ε-CBz]2 [Example 48]” the EC50 [1] was 0.13 µg/mL and the “anti-HIV activity compared with SPL7013” value [1] was “considerably more active than SPL7013; also recorded: significantly more active than SPL7013”.
“BHALys[GlyLys]2[Lys]4[α,α-Boc]2[ε,α-COCH2O-3,6-Naph(SO3Na)2]2[ε,ε-COCH2O-3,6-Naph(SO3Na)2]2 [Example 42]” gave an EC50 [1] of 10.6 µg/mL.
“BHALys[GlyLys]2[Lys]4[α,α-COCH2O-3,6-Naph(SO3Na)2]2[α,ε-COCH2O-3,6-Naph(SO3Na)2]2[ε,α-COC5H12]2[ε,ε-COC5H12]2 [Example 43]” showed an EC50 [1] of 0.24 µg/mL.
For “BHALys[Lys]2[GlyLys]4[Lys]8[α,α-Boc]4[α,ε-Boc]4[ε,α-COCH2O-3,6-Naph(SO3Na)2]4 [ε,ε-COCH2O-3,6-Naph(SO3Na)2]4 [Example 44]”, the EC50 [1] was 0.33 µg/mL.
For “BHALys[Lys]2[GlyLys]4[Lys]8[α,α-COCH2O-3,6-Naph(SO3Na)2]4[α,εCOCH2O-3,6-Naph(SO3Na)2]4[ε,α-COC5H12]4[ε,ε-COC5H12]4 [Example 45]”, the EC50 [1] was 0.37 µg/mL.
For “BHALys[Lys]2[α,ε-Lys][CBz]2[Lys]3 [COCH2O-3,6-Naph(SO3Na)2]6 [Example 46]”, the EC50 [1] was 0.14 µg/mL and the “anti-HIV activity compared with SPL7013” value [1] was “considerably more active than SPL7013; also recorded: significantly more active than SPL7013”.
For “BHALys[Lys]2[α,ε-Lys][COCH2O-3,6-Naph(SO3Na)2]2[Lys]3 [Boc]6 [Example 47]”, the EC50 [1] was greater than 50 µg/mL.
With “BHALys[Lys]4[Su(NPN)2]8[γ-CO-MTX-α-OtBu]8[COPEG24]8 [Example 60]” the “plasma T½” value [2] was 3.9 ± 0.1^a h.
Substance “BHALys[Lys]4[α-CO-4-PhSO3Na]4[ε-COC5H12]4 [Example 31]” has an EC50 [1] of 344 µg/mL.
For “BHALys[Lys]4[α-COC5H12]4[ε-COCH2O-3,6-Naph(SO3Na)2]4 [Example 30]”, the EC50 [1] was 58.3 µg/mL.
In the case of “BHALys[Lys]4[α-COCH2O-3,6-Naph(SO3Na)2]4[ε-COC5H12]4 [Example 29]”, the EC50 [1] is reported as 23.8 µg/mL.
For BHALys[Lys]8[PEG2KD]16 [Example 54], the “plasma T½” value [2] was 23.90 ± 2.56 h and the “% of 3H dose excreted in total urine” value [2] was 26.0 ± 4.6%.
With BHALys[Lys]8[PEG200]16 [Example 51] the “plasma T½” value [2] was 0.25 ± 0.04 h and the “% of 3H dose excreted in total urine” value [2] was 82.2 ± 6.4%.
For “BHALys[Lys]8[Su(NPN)2]16 [γ-CO-MTX-α-OtBu]16 [COPEG12]16 [Example 58]”, the “plasma T½” value [2] was 9.0 ± 0.2^a h.
With “BHALys[Lys]8[Su(NPN)2]16 [γ-CO-MTX-α-OtBu]16 [COPEG24]16 [Example 61]” the “plasma T½” value [2] was 21.0 ± 1.7 h.
In the case of “BHALys[Lys]8[Su(NPN)2]16 [γ-CO-MTX-α-OtBu]16 [COPEG2300]16 [Example 63]”, the “plasma T½” value [2] is reported as 34.1 ± 1.1 h.
In the case of “BHALys[Lys]8[α-CO2PEG3]8[ε-CO-3,5-Ph(SO3Na)2]8 [Example 34]”, the EC50 [1] is reported as 84.5 µg/mL.
“BHALys[Lys]8[α-CO2PEG3]8[ε-CO-4-PhSO3Na]8 [Example 35]” gave an EC50 [1] greater than 500 µg/mL.
In the case of “BHALys[Lys]8[α-CO-3,5-Ph(SO3Na)2]8[ε-CBz]8 [Example 37]”, the EC50 [1] is reported as 2 µg/mL.
“BHALys[Lys]8[α-CO-4-Ph(SO3Na)]8[ε-CBz]8 [Example 38]” gave an EC50 [1] of 2.2 µg/mL.
Work on “BHALys[Lys]8[α-COCH2O-3,6-Naph(SO3Na)2]8[ε-CBz]8 [Example 36]” yielded an EC50 [1] of 3.2 µg/mL.
For BHALys[Lys]16 [PEG2KD]32 [Example 55], the “plasma T½” value [2] was 75.35 ± 9.3 h and the “% of 3H dose excreted in total urine” value [2] was 3.1 ± 1.9%.
For BHALys[Lys]16 [PEG200]32 [Example 52], the “plasma T½” value [2] was 0.72 ± 0.03 h and the “% of 3H dose excreted in total urine” value [2] was 80.4 ± 13.6%.
With BHALys[Lys]16 [PEG570]32 [Example 53] the “plasma T½” value [2] was 9.45 ± 0.42 h and the “% of 3H dose excreted in total urine” value [2] was 42.9 ± 2.7%.
For “BHALys[Lys]16 [Su(NPN)2]32 [γ-CO-MTX-α-OtBu]32 [COPEG12]32 [Example 59]”, the “plasma T½” value [2] was 23.7 ± 5.0 h.
With “BHALys[Lys]16 [Su(NPN)2]32 [γ-CO-MTX-α-OtBu]32 [COPEG24]32 [Example 62]” the “plasma T½” value [2] was 51.4 ± 2.7 h.
In the case of “BHALys[Lys]16 [α-CO-3,5-Ph(SO3Na)2]16[ε-CBz]16 [Example 40]”, the EC50 [1] is reported as 3.2 µg/mL.
“BHALys[Lys]16 [α-CO-4-Ph(SO3Na)]16 [ε-CBz]16 [Example 41]” showed an EC50 [1] of 4.2 µg/mL.
In the case of “BHALys[Lys]16 [α-COCH2O-3,6-Naph(SO3Na)2]16 [ε-CBz]16 [Example 39]”, the EC50 [1] is reported as 2.4 µg/mL.
For “BHALys[Lys]16[COCH2O-3,6-Naph(SO3Na)2]32 [SPL7013, reference compound]”, the EC50 [1] is listed as 1.5 µg/mL and the HIV replication [3] is listed as “inhibits HIV replication”.
For “DAH [Lys]8[α-CO-3,5-Ph(SO3Na)2]8[ε-COC5H12]8 [Example 32]”, the EC50 [1] was 5.8 µg/mL.
Work on “DAH [Lys]8[α-COCH2O-3,6-Naph(SO3Na)2]8[ε-COC5H12]8 [Example 33]” yielded an EC50 [1] of 0.71 µg/mL.
